{"source": "patent US10609906B2", "about": "“Apparatus and method of using a simulated skin substrate for testing insect repellants” (S. C. JOHNSON & SON, INC., priority 2016, dated 2020)", "key": {"[1]": {"test": "surface wetting of insect repellent actives on hydrated skin substitute substrate", "type": "physicochemical", "details": "for surface wetting on skin substitute substrate: ethanol solutions containing 5%, 10%, 15%, and 25% of the active; for surface wetting on hydrated skin substitute substrate: insect repellant active as such", "from_the_text": "Additionally, the surface wetting of insect repellents on the skin substitute substrate should be close to the surface wetting of insect repellents on human skin. The term “wetting” refers to the ease with which a substance can intimately contact and spread over a given substrate. There are a variety of forces (ionic, static, polar, van der Waals etc.) acting between the substance and the substrates that ensure good bonding. Good wetting provides a larger area of contact where these forces may act. Consequently, good wetting is crucial for good bond formation. […] Complete wetting is achieved when the contact angle between the liquid and the solid surface is approaching or is substantially zero. […] The interaction of ethanol solutions containing 5%, 10%, 15%, and 25% of each aforementioned active substance and the tested skin substitute substrate was also tested. […] Due to this degree of wetting between the insect repellent active and the tested skin substitute substrate, the desired bonding between the active and the tested skin substitute substrate is achieved. As a result, the insect repellent remains on the skin substitute substrate for a duration similar to that of human skin."}, "mosquitoes [2]": {"system": "mosquitoes", "test": "arm-in-cage method with human research participants, laboratory, complete protection time", "type": "in vivo", "from_the_text": "When comparing the CPT data of skin-applied insect repellents, such as DEET, using the human surrogate apparatus 100 to the CPT data of skin-applied insect repellents obtained using human research participants via the arm-in-cage method (See Product Performance Test Guidelines OPPTS 810.3700: Insect Repellents to be Applied to Human Skin, United States Environmental Protection Agency, EPA 712-10-001, Jul. 7, 2010), data from both groups is very similar to each other as may be seen with reference to FIG. 5 in a controlled environment, e.g., a laboratory. Further, Table 1 illustrates the average CPT for the two methods based on differing weight percentages of the active ingredient DEET of the insect repellent, as well as the […] (“±SE”) at each weight percentage for the two groups. As may be seen, the differences between the experiments using human research participants via the arm-in-cage method and the experiments using the human surrogate apparatus 100 are statistically negligible."}, "wild mosquitoes": {"system": "wild mosquitoes", "test": "portable human surrogate apparatus 200, outdoor field test, complete protection time", "type": "in vivo", "details": "for CPT data with human surrogate apparatus 200 compared with voluntary human subjects group: outdoor field test", "description": "The human surrogate apparatus of FIG. 1 is intended for use in a laboratory or controlled environment. Preferably, the controlled environment has a temperature range of between about 24° C. to about 30° C. and a range of relative humidity of between about 40% to about 60%. In contrast, FIGS. 2 and 3 illustrate an embodiment of a human surrogate apparatus 200 for testing the efficacy of a skin-applied insect repellent in the field. By fashioning the human surrogate apparatus 200 to be portable, the apparatus may be used in any number of real world environments. The human surrogate apparatus 200 therefore provides the advantage of similar testing efficacy as human testing, but without exposure to mosquitoes or other insects found in the field.\nWith reference still to FIGS. 2 and 3, the human surrogate apparatus 200 is disposed in an outdoor environment, with an identified population of biting insects. The portable human surrogate apparatus 200 is provided with a housing 202 having a power supply line 204 connected thereto. In some embodiments, a power supply 206 is located remotely from the housing 202 to provide power to the human surrogate apparatus 200. Alternatively, or in addition, a local power supply is provided within or attached to the housing 202. In such an embodiment, the power supply line 204 may be omitted, provided within the housing 202, or otherwise fashioned differently within the housing 202 to allow energy to reach electrical components thereof\nWith reference to FIG. 3, the human surrogate apparatus 200 includes a heater 208 in electrical communication with the power supply 206. In the present embodiment, the heater 208 is a silicone-rubber heating blanket, manufactured by BriskHeat Corporation, Columbus, OH. A non-collagen based, non-biological substrate 210 is also provided and is exposed to the ambient environment. In certain embodiments the non-collagen based, non-biological substrate 210 may be synthetic.\nIn the present embodiment, the substrate 210 is securely fastened to the portable human surrogate apparatus 200 by magnetic strips 212, or may be fastened by any other suitable means. In some embodiments a temperature buffering device 214 is provided beneath the substrate 210, which assists in transmitting heat from the heater 208 and maintains the substrate 210 at a predetermined temperature. In the present embodiment, the temperature buffering device 214 is a water bath, enclosed in a container 220, which is made of materials that prevent water leakage and that transmit heat at the same time. Moreover, the portable human surrogate apparatus 200 is connected to a CO2 source 216, which may be remote from the housing 202, attached to the housing 202, or otherwise retained within the housing 202. In the present embodiment, the CO2 source 216 delivers CO2 at a rate of between about 400 mL/min (14 oz/min) to about 600 mL/min (20.3 oz/min).\nIt has also been experimentally determined that the human surrogate apparatuses described herein perform consistently in a controlled environment, e.g., a laboratory with predetermined and controllable conditions, and in an uncontrolled environment, e.g., in an outdoor field test. With reference to FIG. 8 and Table 3, the CPT in hours obtained from testing 7% weight percentage DEET repellent efficacy in the laboratory and obtained from the field is similar.\nSimilarly, for testing substance picaridin (referring to FIGS. 11A-11C) and PMD (referring to FIGS. 12A-12C), the CPT data (including average CPT) in the human surrogate apparatus 200 group shares overlapping confidence intervals with the CPT data in the field test group using the voluntary human subjects."}, "mosquitoes [3]": {"system": "mosquitoes", "test": "arm-in-cage method with human research participants, laboratory, complete protection time", "type": "in vivo", "details": "inverse prediction from model"}, "adult female mosquitoes": {"system": "adult female mosquitoes", "test": "human surrogate apparatus 100 (Vitro-Skin skin substitute substrate), laboratory, complete protection time", "type": "in vivo, Aedes aegypti", "details": "for Predicted percent DEET concentration (±SE): inverse prediction from model; for CPT data with human surrogate apparatus 100 compared with arm-in-cage group: 10% by weight, laboratory", "quoted_text": "With reference to FIG. 4, a method of using the human surrogate apparatus 100 is explained.\nIn certain embodiments, different test substances contain different concentrations of testing insect repellent. The concentration of testing insect repellent can be measured by weight percentage or by volume percentage of the testing insect repellent diluted in ethanol or in any other suitable diluents. […] Further, in the present embodiment, regardless of the concentration of the repellent, the combined mass of the repellent and ethanol is about 0.19 g. In other experiments, the combined mass of the repellent(s) and the diluent(s) is greater or less than about 0.19 g, but similarly stays the same independent of the concentration of the repellent. With different sets of experiments, the amount of skin-applied test substance used in the testing is based on the size of the substrate and the properties of different testing insect repellents, such as the active ingredient dosage.\nThis cycle of exposure-withdrawal-exposure is repeated until one or more biting insects land on the treated substrate for equal to or longer than 2 seconds."}, "[4]": {"details": "7% DEET in EtOH, Field, human surrogate apparatus"}, "[5]": {"details": "7% DEET in EtOH, Lab, human surrogate apparatus"}, "[6]": {"details": "7% DEET in ethanol, Human Skin Surrogate"}, "[7]": {"details": "15% DEET in ethanol, Human Skin Surrogate"}, "[8]": {"details": "20% DEET in ethanol, Human Skin Surrogate"}, "[9]": {"details": "25% DEET in ethanol, Human Skin Surrogate"}, "[10]": {"details": "30% DEET in ethanol, Human Skin Surrogate"}}, "data": [{"smiles": "CCN(CC)C(=O)c1cccc(C)c1", "note": "[DEET, N,N-Diethyl-3-methylbenzamide]", "values": [{"measurement": "surface wetting on skin substitute substrate", "setting": "[1]", "value": "substantially complete wetting"}, {"measurement": "surface wetting on hydrated skin substitute substrate", "setting": "[1]", "value": "substantially complete wetting"}, {"measurement": "Complete protection time (median)", "setting": "mosquitoes [2]; 7% DEET in ethanol", "value": 2.3, "unit": "h"}, {"measurement": "Complete protection time Mean ± SE", "setting": "mosquitoes [2]; 7% DEET in ethanol", "value": "2.5 ± 0.7", "unit": "h"}, {"measurement": "Complete protection time (median)", "setting": "mosquitoes [2]; 15% DEET in ethanol", "value": 3.5, "unit": "h"}, {"measurement": "Complete protection time Mean ± SE", "setting": "mosquitoes [2]; 15% DEET in ethanol", "value": "3.9 ± 1.5", "unit": "h"}, {"measurement": "Complete protection time (median)", "setting": "mosquitoes [2]; 20% DEET in ethanol", "value": 3.8, "unit": "h"}, {"measurement": "Complete protection time Mean ± SE", "setting": "mosquitoes [2]; 20% DEET in ethanol", "value": "4.9 ± 2.1", "unit": "h"}, {"measurement": "Complete protection time (median)", "setting": "mosquitoes [2]; 25% DEET in ethanol", "value": 6.8, "unit": "h"}, {"measurement": "Complete protection time Mean ± SE", "setting": "mosquitoes [2]; 25% DEET in ethanol", "value": "6.5 ± 1.4", "unit": "h"}, {"measurement": "Complete protection time (median)", "setting": "mosquitoes [2]; 30% DEET in ethanol", "value": 6.6, "unit": "h"}, {"measurement": "Complete protection time Mean ± SE", "setting": "mosquitoes [2]; 30% DEET in ethanol", "value": "6.6 ± 0.7", "unit": "h"}, {"measurement": "Complete protection time (median)", "setting": "wild mosquitoes; [4]", "value": 2.0, "unit": "h"}, {"measurement": "Complete protection time Mean ± SE", "setting": "wild mosquitoes; [4]", "value": "2.0 ± 0.4", "unit": "h"}, {"measurement": "Complete protection time Range", "setting": "wild mosquitoes; [4]", "value": "1.5 to 2.5", "unit": "h"}, {"measurement": "CPT data with human surrogate apparatus 200 compared with voluntary human subjects group", "setting": "wild mosquitoes", "value": "not significantly different"}, {"measurement": "Predicted percent DEET concentration (±SE)", "setting": "mosquitoes [3]; for complete protection time 1 h", "value": "1.61 ± 1.69", "unit": "%"}, {"measurement": "Predicted percent DEET concentration (±SE)", "setting": "mosquitoes [3]; for complete protection time 2 h", "value": "6.15 ± 0.94", "unit": "%"}, {"measurement": "Predicted percent DEET concentration (±SE)", "setting": "mosquitoes [3]; for complete protection time 3 h", "value": "10.07 ± 0.88", "unit": "%"}, {"measurement": "Predicted percent DEET concentration (±SE)", "setting": "mosquitoes [3]; for complete protection time 4 h", "value": "14.08 ± 1.15", "unit": "%"}, {"measurement": "Predicted percent DEET concentration (±SE)", "setting": "mosquitoes [3]; for complete protection time 5 h", "value": "18.70 ± 1.46", "unit": "%"}, {"measurement": "Predicted percent DEET concentration (±SE)", "setting": "mosquitoes [3]; for complete protection time 6 h", "value": "24.85 ± 2.64", "unit": "%"}, {"measurement": "Complete protection time (median)", "setting": "adult female mosquitoes; [5]", "value": 2.0, "unit": "h"}, {"measurement": "Complete protection time Mean ± SE", "setting": "adult female mosquitoes; [5]", "value": "2.2 ± 0.9", "unit": "h"}, {"measurement": "Complete protection time Range", "setting": "adult female mosquitoes; [5]", "value": "1.0 to 3.5", "unit": "h"}, {"measurement": "Complete protection time (median)", "setting": "adult female mosquitoes; [6]", "value": 2.0, "unit": "h"}, {"measurement": "Complete protection time Mean ± SE", "setting": "adult female mosquitoes; [6]", "value": "2.2 ± 0.9", "unit": "h"}, {"measurement": "Complete protection time (median)", "setting": "adult female mosquitoes; [7]", "value": 3.3, "unit": "h"}, {"measurement": "Complete protection time Mean ± SE", "setting": "adult female mosquitoes; [7]", "value": "3.6 ± 1.0", "unit": "h"}, {"measurement": "Complete protection time (median)", "setting": "adult female mosquitoes; [8]", "value": 5.3, "unit": "h"}, {"measurement": "Complete protection time Mean ± SE", "setting": "adult female mosquitoes; [8]", "value": "4.9 ± 2.1", "unit": "h"}, {"measurement": "Complete protection time (median)", "setting": "adult female mosquitoes; [9]", "value": 6.5, "unit": "h"}, {"measurement": "Complete protection time Mean ± SE", "setting": "adult female mosquitoes; [9]", "value": "6.3 ± 1.1", "unit": "h"}, {"measurement": "Complete protection time (median)", "setting": "adult female mosquitoes; [10]", "value": 7.0, "unit": "h"}, {"measurement": "Complete protection time Mean ± SE", "setting": "adult female mosquitoes; [10]", "value": "6.5 ± 2.3", "unit": "h"}, {"measurement": "Predicted percent DEET concentration (±SE)", "setting": "adult female mosquitoes; for complete protection time 1 h, Human Skin Surrogate", "value": "3.81 ± 1.72", "unit": "%"}, {"measurement": "Predicted percent DEET concentration (±SE)", "setting": "adult female mosquitoes; for complete protection time 2 h, Human Skin Surrogate", "value": "8.17 ± 1.16", "unit": "%"}, {"measurement": "Predicted percent DEET concentration (±SE)", "setting": "adult female mosquitoes; for complete protection time 3 h, Human Skin Surrogate", "value": "11.92 ± 1.04", "unit": "%"}, {"measurement": "Predicted percent DEET concentration (±SE)", "setting": "adult female mosquitoes; for complete protection time 4 h, Human Skin Surrogate", "value": "15.71 ± 1.13", "unit": "%"}, {"measurement": "Predicted percent DEET concentration (±SE)", "setting": "adult female mosquitoes; for complete protection time 5 h, Human Skin Surrogate", "value": "20.00 ± 1.21", "unit": "%"}, {"measurement": "Predicted percent DEET concentration (±SE)", "setting": "adult female mosquitoes; for complete protection time 6 h, Human Skin Surrogate", "value": "25.55 ± 1.58", "unit": "%"}]}, {"smiles": "CC1CCC(C(C)(C)O)C(O)C1", "note": "(stereo not shown) [PMD, para-menthane-3,8-diol]", "values": [{"measurement": "surface wetting on skin substitute substrate", "setting": "[1]", "value": "substantially complete wetting"}, {"measurement": "surface wetting on hydrated skin substitute substrate", "setting": "[1]", "value": "substantially complete wetting"}, {"measurement": "CPT data with human surrogate apparatus 200 compared with voluntary human subjects group", "setting": "wild mosquitoes", "value": "No statistically significant difference"}, {"measurement": "CPT data with human surrogate apparatus 100 compared with arm-in-cage group", "setting": "adult female mosquitoes", "value": "not significantly different"}]}, {"smiles": "CCC(C)OC(=O)N1CCCCC1CCO", "note": "(stereo not shown) [picaridin, 2-(2-hydroxyethyl)-1-piperidinecarboxylic acid 1-methylpropyl ester]", "values": [{"measurement": "surface wetting on skin substitute substrate", "setting": "[1]", "value": "substantially complete wetting"}, {"measurement": "surface wetting on hydrated skin substitute substrate", "setting": "[1]", "value": "substantially complete wetting"}, {"measurement": "CPT data with human surrogate apparatus 200 compared with voluntary human subjects group", "setting": "wild mosquitoes", "value": "No statistically significant difference"}, {"measurement": "CPT data with human surrogate apparatus 100 compared with arm-in-cage group", "setting": "adult female mosquitoes", "value": "within the range of CPT data points of the group employing the arm-in-cage method"}]}]}
